Assay results: US9193755B1, “TFEB variants and uses thereof” (Fondazione Telethon, priority 2011, dated 2015)

Assays:
long-lived proteins = assay: Degradation of long-lived proteins; format: cell-based; conditions: autophagy inhibitor added
Description: Sub-confluent cells were incubated with L-U^14C-serine for 20 h and chased for 1 h with cold media to degrade short-lived proteins. Subsequently cells were incubated with either normal media or starvation media (eventually in the presence of 3-MA) for 4 h. The rate of long-lived protein degradation was calculated from the ratio of soluble radioactivity in the media to that insoluble in the acid-precipitable cell pellet.

TFEB = TFEB nuclear translocation in starved / re-stimulated HeLa cells (nuclear/cytosolic fractionation, immunofluorescence); format: cell-based, human; conditions: for nuclear translocation of exogenously expressed TFEB: HeLa and HEK-293T cells transfected with TFEB-3xFLAG, treated overnight; for TFEB nuclear translocation compared to starved media alone: EBSS media supplemented with the factor
Description: Cells were seeded at 50% of confluence in 6 well dishes and serum starved overnight (ON). Normal medium was added the following day either in presence of DMSO or kinase inhibitors. Subcellular fractionation was carried out as previously reported.

mTORC1 = mTORC1 activity by level of p-P70S6K (immunoblotting); format: cell-based, human; conditions: HeLa cells treated overnight
TFEB S142 = TFEB S142 phosphorylation with p-S142 phosphospecific antibody; format: cell-based, human; conditions: starved cells supplemented with normal media
Text: The mouse anti-TFEB monoclonal antibody was purchased from My Biosource catalogue No. MBS120432. To generate anti-pS142 specific antibodies, rabbits were immunized with the following peptide coupled to KLH: AGNSAPN{pSer}[…]. Following the fourth immunization, rabbits were sacrificed and the serum was collected. Non-phosphospecific antibodies were depleted from the serum by circulation through a column containing the non-phosphorylated antigene. The phosphospecific antibodies were subsequently purified using a column containing the phosphorylated peptide.
Cells were lysed with M-PER buffer (Thermo) containing protease and phosphatase inhibitors (Sigma); nuclear/cytosolic fractions were isolated as above described. Proteins were separated by SDS-PAGE (Invitrogen; reduced NuPAGE 4-12% Bis-tris Gel, MES SDS buffer). If needed, the gel was stained using 20 ml Imperial Protein Stain (Thermo Fisher) at room temperature for 1 h and de-stained with water. Immunoblotting analysis was performed by transferring the protein onto a nitrocellulose membrane with an I-Blot (Invitrogen). […]

primary hepatocytes = conditions: for upregulation / transcriptional response of TFEB target genes: hepatocytes from TFEB conditional knockout mice; for levels of P-ERK / mTOR as measured by the level of p-S6K: primary hepatocytes
Description: Liver was dissociated in a petri dish, cell pellet was washed in HBSS and plated at density of 5×10^5 cells/35 mm dish and cultured in William's medium E supplemented with 10% FBS, 2 mM glutamine, 0.1 mM Insulin, 0.1 mM Dexamethasone and pen/strep. The next day, cells were treated as described in the text.
Total RNA was extracted from tissues using TRIzol (Invitrogen) or from cells using RNAesy column (Qiagen). Reverse transcription was performed using TaqMan reverse transcription reagents (Applied Biosystems). Lysosomal and autophagic gene specific primers were previously reported^2. Autophagy gene primers and mouse primers were purchased from SABiosciences. Fold change calculations were calculated using SABiosciences' online data analysis website (http colon double forward slash www dot sabiosciences dot com forward slash per forward slash arrayanalysis dot php) which uses the DDCt method. […] Next, the DDCt value is calculated between the “control” group and the “experimental” group. Lastly, the fold change is calculated using 2^(−DDCt). Biological replicates were grouped to allow calculating the fold change values. Unpaired T-Test was used to calculate statistical significance. Asterisks in the graph indicate that the P-value was <0.05.

mTOR = mTOR (Homo sapiens, UniProt P42345); conditions: recent data (41, 47, 48); cited from earlier work
[1] = Dissolution of test peptides for in vitro kinase assay; format: physicochemical; conditions: 1 mM in 50 mM HEPES pH7
Description: TFEB-S-142: aa. o 117-166 of Seq Id No. 2: […] and TFEB-A-142: Seq Id No. 4, corresponding to aa. of 117-166 of Seq Id No. 2 where Ser 142 was substituted with Ala (bold): […] were synthesized by […] corp. The test peptides TFEB-A-142 and TFEB-S-142 were made up to 1 mM in 50 mM HEPES pH7. […] The kinase assay was performed at room temperature for 40 minutes at 200 μM ATP and 100 μM of each peptide, using Millipore's standard radiometric assay. All protein kinases were used at their standard KinaseProfiler™ assay concentration. Following incubation, all assays were stopped by the addition of acid and an aliquot spotted onto P30 and Filtermat A to separate products. All tests were carried out in triplicate, and the usual substrate for each protein kinase included as a control. In Vivo Gene Delivery

Cn1cnc(N)c2ncnc1-2 [3-methyl adenine, reference compound]
TFEB-induced enhancement of long-lived protein degradation (long-lived proteins): abolished

CC/C=C\C=C/C(=O)N/C=C/C[C@H]1C[C@@H](O)[C@@H](C)C/C=C/Cc2cccc(O)c2C(=O)O1 [Salicylihalamide A]
nuclear translocation of exogenously expressed TFEB (TFEB): induced nuclear translocation
mTORC1 activity as measured by level of p-P70S6K (mTORC1): inhibited

CCC(=O)N1CCN(c2ccc(-n3c(=O)ccc4cnc5ccc(-c6cnc7ccccc7c6)cc5c43)cc2C(F)(F)F)CC1 [Torin 1]
TFEB subcellular localization (TFEB; starved cells stimulated with amino-acid rich medium, Torin 1 250 nM, Rapamycin 2.5 μM): massive TFEB nuclear accumulation
nutrient-induced S142 phosphorylation (TFEB S142): clearly blunted
upregulation / transcriptional response of TFEB target genes (primary hepatocytes): significantly reduced
levels of P-ERK (primary hepatocytes): unaffected
mTOR as measured by the level of p-S6K (primary hepatocytes): inhibited mTOR

Nc1ccc(-c2ccc3ncc4ccc(=O)n(-c5cccc(C(F)(F)F)c5)c4c3c2)cn1 [Torin 2]
mTOR inhibition (mTOR): completely inhibiting mTOR activity

N#CC(=C(/N)Sc1ccccc1N)/C(C#N)=C(\N)Sc1ccccc1N [U0126]
TFEB molecular weight shift induced by nutrients (TFEB): only a partial TFEB molecular weight shift
TFEB nuclear localization (TFEB): resulted in TFEB nuclear localization, at level similar to starvation

CCN(CC)CCCC(C)Nc1ccnc2cc(Cl)ccc12 (stereo not drawn) [chloroquine]
nuclear translocation of exogenously expressed TFEB (TFEB): induced nuclear translocation
upregulation / transcriptional response of TFEB target genes (primary hepatocytes): significantly blunted
expression of TFEB target genes (primary hepatocytes; hepatocytes from control mice): upregulated
levels of P-ERK (primary hepatocytes): unaffected
mTOR as measured by the level of p-S6K (primary hepatocytes): inhibited mTOR

EGF: growth factor supplemented to EBSS media (NSDSECPLSHDGYCLHDGVCMYIEALDKYACNCVVGYIGERCQYRDLKWWELR; UniProt P01133 971-1023, looked up)
TFEB nuclear translocation compared to starved media alone (TFEB): significant inhibition

LIF: cytokine supplemented to EBSS media
TFEB nuclear translocation compared to starved media alone (TFEB): Almost no effect

PPPAASPGVRAGHVLSSSAGNSAPNAPMAMLHIGSNPERELDDVIDNIMR [TFEB-A-142]
dissolution [1]: no issue with dissolution

PPPAASPGVRAGHVLSSSAGNSAPNSPMAMLHIGSNPERELDDVIDNIMR (listed as Homo sapiens) [TFEB-S-142, peptide aa]
dissolution [1]: no issue with dissolution

insulin: growth factor supplemented to EBSS media
TFEB nuclear translocation compared to starved media alone (TFEB): significant inhibition
